Source: ChEMBL document CHEMBL1201862, “PubChem BioAssay data set” (2004)
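Following 48 hours of exposure in 96-well plates, responses at five concentrations were used to interpolate endpoints linearly. At the GI50, growth is halved.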 The source made the active and inactive calls. Cut-off read from the data, not from the text of the source: active = GI50 up to about 1.1 µM and inactive = higher.

What was measured:
Test in all cases: NCI anticancer screen, dose series, 48 h
SNB-75 = test system: SNB-75
HT-29 = test system: HT-29
ACHN = test system: ACHN
KM12 = test system: KM12
MDA-MB-231 = test system: MDA-MB-231
IGROV-1 = test system: IGROV-1
DMS-273 = test system: DMS-273
K562 = test system: K562
BT-549 = test system: BT-549
NCI-H23 = test system: NCI-H23
NCI/ADR-RES = test system: NCI/ADR-RES
HOP-92 = test system: HOP-92
U-251 = test system: U-251
OVCAR-3 = test system: OVCAR-3
HCC 2998 = test system: HCC 2998
SN12C = test system: SN12C
SF-539 = test system: SF-539
RPMI-8226 = test system: RPMI-8226
A549 = test system: A549
OVCAR-8 = test system: OVCAR-8

Row | SMILES | GI50 (SNB-75) | GI50 (HT-29) | GI50 (ACHN) | GI50 (KM12) | GI50 (MDA-MB-231) | GI50 (IGROV-1) | GI50 (DMS-273) | GI50 (K562) | GI50 (BT-549) | GI50 (NCI-H23) | GI50 (NCI/ADR-RES) | GI50 (HOP-92) | GI50 (U-251) | GI50 (OVCAR-3) | GI50 (HCC 2998) | GI50 (SN12C) | GI50 (SF-539) | GI50 (RPMI-8226) | GI50 (A549) | GI50 (OVCAR-8)
1 | CC(C)(C)C1CCC2(CC1)CCN(CCCN1CCOCC1)CC2 | 24.8 µM (inactive) | 6.5 µM (inactive) | > 73.3 µM (inactive) | > 56 µM (inactive) | > 100 µM (inactive) | > 65 µM (inactive) | 19.3 µM (inactive) | 8.51 µM (inactive) | > 100 µM (inactive) | 52.1 µM (inactive) | > 100 µM (inactive) | 17.7 µM (inactive) | > 35.2 µM (inactive) | > 100 µM (inactive) | 16.9 µM (inactive) | > 86.3 µM (inactive) | 18.7 µM (inactive) | 17.5 µM (inactive) | > 49.9 µM (inactive) | > 81.1 µM (inactive)
2 | CC(=O)NC(CCCN(Cc1ccccc1)C(=O)NCCCl)C(=O)NCc1ccccc1 (stereo unspecified) | > 69.5 µM (inactive) | > 100 µM (inactive) | > 100 µM (inactive) | > 100 µM (inactive) | – | > 100 µM (inactive) | > 100 µM (inactive) | > 100 µM (inactive) | – | > 100 µM (inactive) | – | > 79.4 µM (inactive) | > 100 µM (inactive) | > 100 µM (inactive) | > 100 µM (inactive) | > 100 µM (inactive) | > 100 µM (inactive) | > 100 µM (inactive) | > 100 µM (inactive) | > 100 µM (inactive)
3 | Cc1ccc(S(=O)(=O)N/N=C(\c2nc3ccc(Cl)cc3nc2O)C(O)c2cccc([N+](=O)[O-])c2)cc1 (stereo unspecified) | > 100 µM (inactive) | > 100 µM (inactive) | > 100 µM (inactive) | > 100 µM (inactive) | – | > 100 µM (inactive) | > 100 µM (inactive) | > 100 µM (inactive) | – | > 100 µM (inactive) | – | > 100 µM (inactive) | > 100 µM (inactive) | > 100 µM (inactive) | > 100 µM (inactive) | > 100 µM (inactive) | > 100 µM (inactive) | 71 µM (inactive) | > 100 µM (inactive) | > 100 µM (inactive)
4 | COc1cc(/C=C\c2ccc(Br)cc2)cc(OC)c1OC | 0.000422 µM (active) | 0.01 µM (active) | 0.000794 µM (active) | 0.000612 µM (active) | – | 0.0124 µM (active) | 0.00332 µM (active) | 0.000386 µM (active) | – | 0.000904 µM (active) | – | 0.01 µM (active) | 0.000463 µM (active) | 0.000341 µM (active) | 0.0155 µM (active) | 0.00168 µM (active) | 0.000463 µM (active) | 0.000582 µM (active) | 0.000589 µM (active) | 0.00161 µM (active)
